Details of data set [1]: method as in PMID 36552522. As to conditions: read-out: GI50 (cytotoxic); cited from earlier work.
Another data set concerns the target amylase. As to conditions: cited from earlier work.
A further data set addresses T1, BChE (Homo sapiens, UniProt P06276).
T1 construct: purchased Merck, Darmstadt, Germany
As to conditions: cited from earlier work.

For another data set, the target named is lipase. As to conditions: cited from earlier work.
The target in the next data set is T2, AChE (Homo sapiens, UniProt P22303).
T2 construct: purchased Merck, Darmstadt, Germany
T2 sequence (P22303 32-614): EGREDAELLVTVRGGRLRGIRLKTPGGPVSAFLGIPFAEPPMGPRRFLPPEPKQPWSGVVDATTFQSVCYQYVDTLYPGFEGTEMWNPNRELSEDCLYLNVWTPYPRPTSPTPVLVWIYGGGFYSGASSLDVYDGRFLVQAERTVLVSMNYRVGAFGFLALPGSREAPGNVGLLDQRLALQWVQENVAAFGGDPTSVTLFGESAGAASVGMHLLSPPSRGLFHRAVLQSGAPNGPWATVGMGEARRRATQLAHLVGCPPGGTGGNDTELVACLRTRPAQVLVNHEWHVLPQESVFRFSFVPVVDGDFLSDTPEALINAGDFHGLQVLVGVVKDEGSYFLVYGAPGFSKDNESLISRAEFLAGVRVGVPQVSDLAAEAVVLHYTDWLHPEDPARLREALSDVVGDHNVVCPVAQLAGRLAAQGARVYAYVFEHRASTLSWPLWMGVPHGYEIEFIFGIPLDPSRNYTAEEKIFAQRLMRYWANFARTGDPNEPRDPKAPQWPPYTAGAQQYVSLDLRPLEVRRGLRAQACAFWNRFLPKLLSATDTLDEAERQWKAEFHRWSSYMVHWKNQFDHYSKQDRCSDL
As to conditions: cited from earlier work.

For a further data set, the system named is human erythrocytes. Put plainly: Lipid peroxidation in human erythrocytes. In kind it is cell-based. The settings on record: at 100 µg/mL. On the procedure: The lipid peroxidation in human erythrocytes (LP) assay was performed as described in a previous study with some modifications. Human blood cells (red) were used. After washing, the cells were suspended in phosphate-buffered saline (hemoglobin density of 1 mM). The final cell suspension with different concentrations of the test compounds was incubated and dissolved in DMSO and PBS for 10 min at 37 °C. After incubation, the cells were added to tert-butylhydroperoxide (1 mM) for 15 min at 37 °C. After this, the lipid peroxidation was obtained via the TBARs’ formation. The evaluation was performed in quadruplicate, and the results are shown as the inhibition percentage (IP) of lipid peroxidation in human erythrocytes (IPLP) contrasted to the control of catechin at 100 µg/mL and reported as the average ± SD. Healthy volunteer donors gave their informed consent for inclusion before participating in the study. The protocol assay was conducted in accordance with the Declaration of Helsinki and is included in the approved project by CICIT-CA-UNSJ-Argentina (Project code 80020190100277SJ, N 0591-20-R-UNSJ), referred to as an ethical and environmental safeguard and to preserve the hygiene and safety conditions in the activities to be carried out in laboratories.

In data set [2] the target is acetylcholinesterase (AChE). Also on record: method as in PMID 36552522. As to conditions: cited from earlier work.
The next data set addresses tyrosinase (Agaricus bisporus, UniProt C7FF04). Set-up: method as in PMID 36552522. As to conditions: cited from earlier work.
Data set [3] deals with butyrylcholinesterase (BChE). Also on record: method as in PMID 36552522. As to conditions: cited from earlier work.

Chain of tyrosinase (C7FF04 1-392): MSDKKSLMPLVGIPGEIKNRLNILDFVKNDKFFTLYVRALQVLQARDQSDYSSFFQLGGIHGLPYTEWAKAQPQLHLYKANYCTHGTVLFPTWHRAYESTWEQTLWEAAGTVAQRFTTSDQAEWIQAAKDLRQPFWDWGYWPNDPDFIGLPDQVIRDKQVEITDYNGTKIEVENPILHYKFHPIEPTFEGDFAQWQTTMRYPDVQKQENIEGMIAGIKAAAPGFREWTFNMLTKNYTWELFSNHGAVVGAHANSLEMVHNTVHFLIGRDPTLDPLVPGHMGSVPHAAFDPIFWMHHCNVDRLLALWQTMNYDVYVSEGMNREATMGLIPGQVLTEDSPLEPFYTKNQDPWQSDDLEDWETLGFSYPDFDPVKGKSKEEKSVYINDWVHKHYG
T1 sequence (P06276 29-602, species assumed): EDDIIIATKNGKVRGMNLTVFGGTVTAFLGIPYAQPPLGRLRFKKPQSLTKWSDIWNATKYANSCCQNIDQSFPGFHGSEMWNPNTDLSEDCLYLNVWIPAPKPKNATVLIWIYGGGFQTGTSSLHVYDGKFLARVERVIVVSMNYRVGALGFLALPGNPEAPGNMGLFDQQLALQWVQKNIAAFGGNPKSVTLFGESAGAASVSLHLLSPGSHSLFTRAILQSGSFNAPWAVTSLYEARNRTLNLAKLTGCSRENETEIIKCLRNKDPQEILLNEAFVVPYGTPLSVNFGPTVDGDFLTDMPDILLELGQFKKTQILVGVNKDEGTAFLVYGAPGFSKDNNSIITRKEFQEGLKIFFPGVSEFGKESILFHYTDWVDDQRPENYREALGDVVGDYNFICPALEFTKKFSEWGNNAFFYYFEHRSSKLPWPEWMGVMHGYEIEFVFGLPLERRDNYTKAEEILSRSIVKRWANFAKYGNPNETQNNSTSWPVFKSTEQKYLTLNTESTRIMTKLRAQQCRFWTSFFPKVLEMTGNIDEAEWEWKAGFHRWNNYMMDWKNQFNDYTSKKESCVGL

In the case of `CC1=C(CC/C(C)=C/CO)[C@]2(C)CCCC(C)(C)C2CC1` (stereo partly drawn) [ent-labda-8,13-E-diene-15-ol], the GI50 in data set [1] is 4.5 ± 0.1 µM.

Take `O=C(/C=C/c1ccc(O)c(O)c1)O[C@@H]1C[C@](O)(C(=O)O)C[C@@H](O)[C@H]1O` [chlorogenic acid, Chlorogenic acid]: on amylase, the “amylase IC50” value was 498 ± 13 µg/mL. The IC50 is 17.8 µM on BChE and 22.6 µM at AChE. For the same molecule, at lipase, the “lipase IC50” value is 647 µg/mL.

As for `N.N.[Cl][Pt][Cl]` [cisplatin, reference compound], in [1], the GI50 was 4.9 ± 0.2 µM.

`O.Oc1cc(O)c2c(c1)O[C@H](c1ccc(O)c(O)c1)[C@@H](O)C2` [catechin]: the “IPLP (inhibition percentage of lipid peroxidation in human erythrocytes)” value in the data set on human erythrocytes came to 70%.

“2-nor-1,2-secolycoserone [2-nor-1,2-secolycoserone coumarin]”: in data set [2], the AChE inhibition is 1.21 ± 0.03 µg/mL. The “tyrosinase IC50” value on tyrosinase was 103.43 ± 16.86 µg/mL. In data set [3], the “BChE IC50” value is 11.23 ± 0.02 µg/mL.
